Experiment [1] addresses T1, Inhibitor of nuclear factor kappa-B kinase subunit alpha (Homo sapiens) (UniProt O15111).
T1 sequence (whole entry): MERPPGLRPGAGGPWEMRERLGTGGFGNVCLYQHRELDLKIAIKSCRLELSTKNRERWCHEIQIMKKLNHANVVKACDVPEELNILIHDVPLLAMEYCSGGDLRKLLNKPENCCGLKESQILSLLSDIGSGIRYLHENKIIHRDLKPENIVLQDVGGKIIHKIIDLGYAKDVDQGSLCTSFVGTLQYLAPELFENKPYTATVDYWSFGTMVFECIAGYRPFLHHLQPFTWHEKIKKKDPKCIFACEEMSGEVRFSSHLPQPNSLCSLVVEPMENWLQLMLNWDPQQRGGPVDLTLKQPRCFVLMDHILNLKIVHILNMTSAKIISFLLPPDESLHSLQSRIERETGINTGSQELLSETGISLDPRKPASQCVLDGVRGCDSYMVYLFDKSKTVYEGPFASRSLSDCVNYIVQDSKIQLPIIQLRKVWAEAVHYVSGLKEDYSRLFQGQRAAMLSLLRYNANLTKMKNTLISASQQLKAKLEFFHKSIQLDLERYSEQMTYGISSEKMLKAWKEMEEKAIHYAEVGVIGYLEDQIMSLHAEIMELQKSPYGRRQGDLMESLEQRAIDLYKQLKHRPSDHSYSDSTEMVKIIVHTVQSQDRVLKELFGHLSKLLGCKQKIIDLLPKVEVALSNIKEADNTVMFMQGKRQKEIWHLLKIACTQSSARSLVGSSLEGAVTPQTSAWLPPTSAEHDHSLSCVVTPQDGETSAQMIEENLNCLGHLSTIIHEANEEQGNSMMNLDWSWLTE
As to conditions: at 1 µM.

Experiment [2] has as its target T2, Serine/threonine-protein kinase TBK1 (Homo sapiens) (UniProt Q9UHD2).
T2 sequence (whole entry): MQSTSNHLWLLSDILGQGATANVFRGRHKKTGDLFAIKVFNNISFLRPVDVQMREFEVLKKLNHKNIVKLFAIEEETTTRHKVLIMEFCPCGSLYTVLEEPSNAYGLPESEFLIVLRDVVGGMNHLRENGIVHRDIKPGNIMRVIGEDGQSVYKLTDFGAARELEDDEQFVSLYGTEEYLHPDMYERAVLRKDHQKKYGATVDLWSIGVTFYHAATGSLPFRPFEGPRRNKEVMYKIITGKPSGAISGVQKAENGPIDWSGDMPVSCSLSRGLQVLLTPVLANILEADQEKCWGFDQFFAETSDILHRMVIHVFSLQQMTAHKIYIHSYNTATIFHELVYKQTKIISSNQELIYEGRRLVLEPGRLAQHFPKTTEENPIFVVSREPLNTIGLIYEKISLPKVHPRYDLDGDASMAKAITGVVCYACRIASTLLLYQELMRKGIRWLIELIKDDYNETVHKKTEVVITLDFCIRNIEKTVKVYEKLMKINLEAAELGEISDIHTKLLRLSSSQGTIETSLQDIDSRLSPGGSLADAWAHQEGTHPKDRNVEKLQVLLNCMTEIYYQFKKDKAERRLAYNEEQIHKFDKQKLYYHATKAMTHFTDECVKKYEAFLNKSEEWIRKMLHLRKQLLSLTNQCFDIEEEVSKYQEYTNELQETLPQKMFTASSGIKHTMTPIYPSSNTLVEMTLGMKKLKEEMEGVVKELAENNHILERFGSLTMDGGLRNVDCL
The following applies: at 1 µM.

“And” between values parts separate entries of the source, which are not always exact repeats. Equal entries are not always repeated.

Consider `CC1=C(C(=O)Nc2ccc3[nH]ncc3c2)C(c2ccc(F)cc2)N=C(c2ccc(C(F)(F)F)nc2)N1` (stereo unspecified), for which the inhibition was -4% in experiment [1]; 1% and -1% in experiment [2].
With `COc1cccc(-n2ncc3c(N/N=C/c4ccc(C)cc4)ncnc32)c1`, the inhibition in experiment [1] was 13%; in experiment [2], 1% and 2%.
`COc1cccc(-n2ncc3c(N/N=C/c4ccc(S(C)(=O)=O)cc4)ncnc32)c1`: the inhibition was 3% and 2% in experiment [1]; 20% and 30% in experiment [2].

The values are drawn from ChEMBL document CHEMBL2007661, “Compounds: GSK PKIS; Assays: UNC Frye lab” (2012).
